Assay results: ChEMBL document CHEMBL1944561, “Discovery and SAR exploration of a novel series of imidazo[4,5-b]pyrazin-2-ones as potent and selective mTOR kinase inhibitors” (Bioorg Med Chem Lett, 2011)
pIC50: −log10 of the molar value.

Columns and labels:
[1] = molecular target: Tyrosine-protein kinase ABL1 (Homo sapiens) (UniProt P00519); experiment: Inhibition of Abl assessed as activity remaining at 10 uM
[2] = molecular target: RAF proto-oncogene serine/threonine-protein kinase (Homo sapiens) (UniProt P04049); experiment: Inhibition of cRaf assessed as activity remaining at 10 uM
[3] = molecular target: Tyrosine-protein kinase CSK (Homo sapiens) (UniProt P41240); experiment: Inhibition of CSK assessed as activity remaining at 10 uM
[4] = molecular target: Proto-oncogene tyrosine-protein kinase Src (Homo sapiens) (UniProt P12931); experiment: Inhibition of cSRC assessed as activity remaining at 10 uM
[5] = molecular target: T1, Ephrin type-B receptor 4 (Homo sapiens) (UniProt P54760); experiment: Inhibition of EphB4 assessed as activity remaining at 10 uM
T1 sequence (whole entry): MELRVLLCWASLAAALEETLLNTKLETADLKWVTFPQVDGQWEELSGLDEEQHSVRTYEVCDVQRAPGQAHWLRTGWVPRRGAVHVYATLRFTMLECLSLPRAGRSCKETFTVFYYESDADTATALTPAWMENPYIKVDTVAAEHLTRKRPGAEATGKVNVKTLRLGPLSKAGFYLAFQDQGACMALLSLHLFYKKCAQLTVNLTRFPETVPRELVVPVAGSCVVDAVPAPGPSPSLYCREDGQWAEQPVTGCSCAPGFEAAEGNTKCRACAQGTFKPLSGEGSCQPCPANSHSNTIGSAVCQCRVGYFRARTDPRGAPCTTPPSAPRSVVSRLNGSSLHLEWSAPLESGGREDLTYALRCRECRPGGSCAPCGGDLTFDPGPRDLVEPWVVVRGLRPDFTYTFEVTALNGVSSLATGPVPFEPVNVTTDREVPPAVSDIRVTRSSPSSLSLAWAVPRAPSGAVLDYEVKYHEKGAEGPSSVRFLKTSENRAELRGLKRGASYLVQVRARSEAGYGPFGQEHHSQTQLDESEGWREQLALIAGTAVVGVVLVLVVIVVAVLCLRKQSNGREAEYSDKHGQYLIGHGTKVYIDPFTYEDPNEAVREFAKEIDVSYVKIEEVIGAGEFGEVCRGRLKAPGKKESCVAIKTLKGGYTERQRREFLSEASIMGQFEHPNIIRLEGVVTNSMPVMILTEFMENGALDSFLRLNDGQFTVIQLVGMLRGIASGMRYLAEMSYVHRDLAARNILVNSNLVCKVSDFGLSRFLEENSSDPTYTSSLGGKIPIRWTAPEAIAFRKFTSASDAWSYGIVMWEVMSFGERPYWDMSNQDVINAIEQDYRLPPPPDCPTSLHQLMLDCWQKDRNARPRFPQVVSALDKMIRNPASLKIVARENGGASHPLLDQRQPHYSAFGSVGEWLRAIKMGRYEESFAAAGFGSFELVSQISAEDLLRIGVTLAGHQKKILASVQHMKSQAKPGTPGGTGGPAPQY

[6] = molecular target: Fibroblast growth factor receptor 1 (Homo sapiens) (UniProt P11362); experiment: Inhibition of FGFR1 assessed as activity remaining at 10 uM
[7] = molecular target: Glycogen synthase kinase-3 beta (Homo sapiens) (UniProt P49841); experiment: Inhibition of GSK3-beta assessed as activity remaining at 10 uM
[8] = molecular target: Vascular endothelial growth factor receptor 2 (Homo sapiens) (UniProt P35968); experiment: Inhibition of KDR assessed as activity remaining at 10 uM
[9] = molecular target: Serine/threonine-protein kinase pim-2 (Homo sapiens) (UniProt Q9P1W9); experiment: Inhibition of Pim2 assessed as activity remaining at 10 uM
[10] = molecular target: Proto-oncogene tyrosine-protein kinase receptor Ret (Homo sapiens) (UniProt P07949); experiment: Inhibition of Ret assessed as activity remaining at 10 uM
[11] = molecular target: Rho-associated protein kinase 1 (Homo sapiens) (UniProt Q13464); experiment: Inhibition of ROCK1 assessed as activity remaining at 10 uM
[12] = molecular target: T2, Serine/threonine-protein kinase Sgk1 (Homo sapiens) (UniProt O00141); experiment: Inhibition of SGK assessed as activity remaining at 10 uM
T2 sequence (whole entry): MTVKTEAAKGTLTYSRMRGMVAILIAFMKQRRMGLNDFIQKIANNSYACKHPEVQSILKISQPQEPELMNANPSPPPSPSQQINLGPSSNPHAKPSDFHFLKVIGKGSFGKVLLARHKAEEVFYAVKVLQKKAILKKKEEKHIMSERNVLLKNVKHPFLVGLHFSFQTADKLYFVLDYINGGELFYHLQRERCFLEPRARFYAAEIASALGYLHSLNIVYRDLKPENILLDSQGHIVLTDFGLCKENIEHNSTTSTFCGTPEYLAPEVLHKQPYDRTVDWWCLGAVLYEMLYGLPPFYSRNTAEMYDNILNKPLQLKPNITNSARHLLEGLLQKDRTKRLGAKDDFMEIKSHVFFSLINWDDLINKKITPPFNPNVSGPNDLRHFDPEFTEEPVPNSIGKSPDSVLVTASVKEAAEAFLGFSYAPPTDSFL

[13] = molecular target: T3, Serine/threonine-protein kinase TBK1 (Homo sapiens) (UniProt Q9UHD2); experiment: Inhibition of TBK1 assessed as activity remaining at 10 uM
T3 sequence (whole entry): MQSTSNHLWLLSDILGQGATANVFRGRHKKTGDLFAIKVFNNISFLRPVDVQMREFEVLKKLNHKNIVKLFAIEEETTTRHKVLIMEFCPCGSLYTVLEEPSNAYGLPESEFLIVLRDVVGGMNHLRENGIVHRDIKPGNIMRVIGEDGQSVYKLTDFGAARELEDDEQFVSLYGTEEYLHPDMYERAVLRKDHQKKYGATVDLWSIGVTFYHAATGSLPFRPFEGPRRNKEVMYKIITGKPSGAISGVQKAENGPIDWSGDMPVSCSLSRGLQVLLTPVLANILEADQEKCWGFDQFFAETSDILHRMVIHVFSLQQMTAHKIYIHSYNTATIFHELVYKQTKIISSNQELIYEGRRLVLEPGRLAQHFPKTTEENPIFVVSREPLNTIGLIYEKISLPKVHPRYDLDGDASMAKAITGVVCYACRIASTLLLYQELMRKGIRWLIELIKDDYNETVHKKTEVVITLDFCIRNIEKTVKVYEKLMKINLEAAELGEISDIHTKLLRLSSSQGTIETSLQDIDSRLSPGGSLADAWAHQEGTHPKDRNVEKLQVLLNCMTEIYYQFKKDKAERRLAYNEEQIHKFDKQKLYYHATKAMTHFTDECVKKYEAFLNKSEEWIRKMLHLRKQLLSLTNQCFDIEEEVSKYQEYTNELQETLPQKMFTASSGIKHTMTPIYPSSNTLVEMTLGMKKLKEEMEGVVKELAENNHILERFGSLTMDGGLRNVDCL

[14] = molecular target: T4, Serine/threonine-protein kinase mTOR (Homo sapiens, UniProt P42345); experiment: Inhibition of mTOR-mediated S6 phosphorylation in human PC3 cells; assay type: cell-based, PC-3
[15] = molecular target: T4, Serine/threonine-protein kinase mTOR; experiment: Inhibition of mTOR-mediated Akt phosphorylation in human PC3 cells; assay type: cell-based, PC-3

Proto-oncogene tyrosine-protein kinase receptor Ret (Homo sapiens), sequence (P07949 whole entry): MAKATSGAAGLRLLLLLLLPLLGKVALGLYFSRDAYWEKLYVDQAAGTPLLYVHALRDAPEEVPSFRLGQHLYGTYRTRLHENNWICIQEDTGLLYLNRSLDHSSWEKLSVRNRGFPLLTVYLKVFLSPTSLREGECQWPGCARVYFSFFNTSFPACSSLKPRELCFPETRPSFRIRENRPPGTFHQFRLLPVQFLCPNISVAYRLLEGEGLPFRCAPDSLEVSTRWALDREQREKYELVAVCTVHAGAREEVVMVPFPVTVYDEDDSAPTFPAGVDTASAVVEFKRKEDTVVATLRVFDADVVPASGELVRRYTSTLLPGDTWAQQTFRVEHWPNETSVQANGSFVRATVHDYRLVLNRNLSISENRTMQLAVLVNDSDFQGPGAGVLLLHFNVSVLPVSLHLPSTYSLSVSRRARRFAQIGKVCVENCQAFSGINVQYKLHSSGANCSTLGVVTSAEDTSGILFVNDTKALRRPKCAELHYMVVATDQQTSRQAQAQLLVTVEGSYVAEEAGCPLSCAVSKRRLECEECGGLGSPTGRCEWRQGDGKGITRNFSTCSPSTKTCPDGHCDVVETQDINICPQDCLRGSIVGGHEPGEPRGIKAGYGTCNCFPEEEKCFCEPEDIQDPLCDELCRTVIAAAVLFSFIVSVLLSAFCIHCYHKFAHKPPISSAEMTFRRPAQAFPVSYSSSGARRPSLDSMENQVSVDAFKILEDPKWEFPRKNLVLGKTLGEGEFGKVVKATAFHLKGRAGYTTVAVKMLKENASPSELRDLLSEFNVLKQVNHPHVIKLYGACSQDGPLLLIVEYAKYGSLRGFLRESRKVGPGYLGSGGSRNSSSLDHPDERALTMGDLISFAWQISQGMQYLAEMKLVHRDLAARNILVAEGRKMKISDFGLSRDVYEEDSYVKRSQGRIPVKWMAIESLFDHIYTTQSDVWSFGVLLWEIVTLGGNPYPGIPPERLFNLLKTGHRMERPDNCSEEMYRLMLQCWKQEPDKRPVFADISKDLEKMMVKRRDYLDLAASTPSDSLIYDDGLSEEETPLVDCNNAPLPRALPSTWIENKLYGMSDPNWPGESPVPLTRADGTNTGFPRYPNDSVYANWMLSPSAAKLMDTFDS
Tyrosine-protein kinase CSK (Homo sapiens), sequence (P41240 2-450 limits assumed): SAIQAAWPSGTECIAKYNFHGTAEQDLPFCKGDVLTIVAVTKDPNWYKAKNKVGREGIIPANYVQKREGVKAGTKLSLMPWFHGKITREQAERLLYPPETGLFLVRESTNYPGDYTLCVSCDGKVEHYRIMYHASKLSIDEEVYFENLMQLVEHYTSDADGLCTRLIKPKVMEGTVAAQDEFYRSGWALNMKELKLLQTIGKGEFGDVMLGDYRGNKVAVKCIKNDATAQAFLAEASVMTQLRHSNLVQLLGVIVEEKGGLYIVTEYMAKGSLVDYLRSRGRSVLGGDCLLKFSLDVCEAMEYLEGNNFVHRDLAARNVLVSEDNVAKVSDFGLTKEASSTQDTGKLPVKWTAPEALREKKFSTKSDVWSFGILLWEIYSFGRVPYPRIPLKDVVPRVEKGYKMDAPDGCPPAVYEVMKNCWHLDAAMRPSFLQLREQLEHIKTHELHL
Fibroblast growth factor receptor 1 (Homo sapiens), sequence (P11362 22-822 limits assumed): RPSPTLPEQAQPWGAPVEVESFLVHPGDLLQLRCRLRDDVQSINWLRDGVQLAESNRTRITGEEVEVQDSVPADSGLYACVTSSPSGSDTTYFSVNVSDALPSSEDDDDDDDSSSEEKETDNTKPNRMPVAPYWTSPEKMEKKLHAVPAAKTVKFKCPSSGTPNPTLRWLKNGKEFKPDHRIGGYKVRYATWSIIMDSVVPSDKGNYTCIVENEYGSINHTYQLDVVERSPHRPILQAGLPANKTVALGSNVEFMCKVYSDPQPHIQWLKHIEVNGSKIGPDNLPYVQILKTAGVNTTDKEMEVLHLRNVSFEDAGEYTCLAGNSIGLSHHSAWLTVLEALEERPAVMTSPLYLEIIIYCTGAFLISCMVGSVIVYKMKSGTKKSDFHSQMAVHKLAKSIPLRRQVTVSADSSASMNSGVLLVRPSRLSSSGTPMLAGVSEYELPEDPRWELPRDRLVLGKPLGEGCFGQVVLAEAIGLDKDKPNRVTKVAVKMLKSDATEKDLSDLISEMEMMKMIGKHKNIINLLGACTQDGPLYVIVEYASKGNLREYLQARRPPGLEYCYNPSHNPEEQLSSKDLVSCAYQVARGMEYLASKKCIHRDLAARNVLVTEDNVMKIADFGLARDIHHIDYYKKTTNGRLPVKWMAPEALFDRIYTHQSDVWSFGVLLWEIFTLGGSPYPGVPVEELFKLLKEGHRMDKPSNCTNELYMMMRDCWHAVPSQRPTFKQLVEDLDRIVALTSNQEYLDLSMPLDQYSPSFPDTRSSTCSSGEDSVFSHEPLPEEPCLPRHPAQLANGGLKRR
Serine/threonine-protein kinase pim-2 (Homo sapiens), sequence (Q9P1W9 whole entry, looked up): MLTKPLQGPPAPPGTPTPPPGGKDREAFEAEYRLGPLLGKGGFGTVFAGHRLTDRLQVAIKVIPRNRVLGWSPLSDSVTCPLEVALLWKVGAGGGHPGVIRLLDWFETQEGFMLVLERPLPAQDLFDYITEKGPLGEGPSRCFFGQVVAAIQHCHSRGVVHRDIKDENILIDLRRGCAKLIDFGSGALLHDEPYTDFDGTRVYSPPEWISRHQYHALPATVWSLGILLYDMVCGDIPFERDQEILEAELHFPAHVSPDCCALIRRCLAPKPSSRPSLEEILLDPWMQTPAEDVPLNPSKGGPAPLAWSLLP
Tyrosine-protein kinase ABL1 (Homo sapiens), sequence (P00519 whole entry): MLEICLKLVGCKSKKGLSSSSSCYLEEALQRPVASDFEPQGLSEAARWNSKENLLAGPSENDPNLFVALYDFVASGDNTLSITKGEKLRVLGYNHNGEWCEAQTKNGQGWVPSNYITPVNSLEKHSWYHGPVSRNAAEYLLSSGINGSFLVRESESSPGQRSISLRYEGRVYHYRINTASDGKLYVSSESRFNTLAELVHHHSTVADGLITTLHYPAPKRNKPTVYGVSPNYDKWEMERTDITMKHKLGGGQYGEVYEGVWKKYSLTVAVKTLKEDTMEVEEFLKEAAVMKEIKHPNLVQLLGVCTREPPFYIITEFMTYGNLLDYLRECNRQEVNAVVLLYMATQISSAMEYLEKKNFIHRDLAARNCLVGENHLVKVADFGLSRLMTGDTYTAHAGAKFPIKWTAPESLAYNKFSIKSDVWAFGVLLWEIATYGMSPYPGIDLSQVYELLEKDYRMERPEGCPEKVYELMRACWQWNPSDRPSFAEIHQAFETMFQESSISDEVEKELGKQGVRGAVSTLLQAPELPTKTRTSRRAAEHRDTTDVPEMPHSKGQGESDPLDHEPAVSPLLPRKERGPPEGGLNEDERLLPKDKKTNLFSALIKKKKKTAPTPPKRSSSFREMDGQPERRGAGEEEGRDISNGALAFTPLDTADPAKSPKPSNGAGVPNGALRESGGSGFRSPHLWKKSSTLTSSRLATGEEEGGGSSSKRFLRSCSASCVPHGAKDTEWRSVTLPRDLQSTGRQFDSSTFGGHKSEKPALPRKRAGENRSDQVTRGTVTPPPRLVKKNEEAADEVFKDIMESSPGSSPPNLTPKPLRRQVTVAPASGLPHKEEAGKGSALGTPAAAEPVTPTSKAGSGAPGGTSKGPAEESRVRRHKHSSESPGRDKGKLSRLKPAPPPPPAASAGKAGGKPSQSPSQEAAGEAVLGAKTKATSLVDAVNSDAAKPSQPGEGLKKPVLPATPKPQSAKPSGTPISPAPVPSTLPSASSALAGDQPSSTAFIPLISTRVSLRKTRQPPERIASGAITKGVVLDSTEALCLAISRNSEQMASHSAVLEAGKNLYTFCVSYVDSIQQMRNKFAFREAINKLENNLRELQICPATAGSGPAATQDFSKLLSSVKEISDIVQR
Proto-oncogene tyrosine-protein kinase Src (Homo sapiens), sequence (P12931 2-536 limits assumed): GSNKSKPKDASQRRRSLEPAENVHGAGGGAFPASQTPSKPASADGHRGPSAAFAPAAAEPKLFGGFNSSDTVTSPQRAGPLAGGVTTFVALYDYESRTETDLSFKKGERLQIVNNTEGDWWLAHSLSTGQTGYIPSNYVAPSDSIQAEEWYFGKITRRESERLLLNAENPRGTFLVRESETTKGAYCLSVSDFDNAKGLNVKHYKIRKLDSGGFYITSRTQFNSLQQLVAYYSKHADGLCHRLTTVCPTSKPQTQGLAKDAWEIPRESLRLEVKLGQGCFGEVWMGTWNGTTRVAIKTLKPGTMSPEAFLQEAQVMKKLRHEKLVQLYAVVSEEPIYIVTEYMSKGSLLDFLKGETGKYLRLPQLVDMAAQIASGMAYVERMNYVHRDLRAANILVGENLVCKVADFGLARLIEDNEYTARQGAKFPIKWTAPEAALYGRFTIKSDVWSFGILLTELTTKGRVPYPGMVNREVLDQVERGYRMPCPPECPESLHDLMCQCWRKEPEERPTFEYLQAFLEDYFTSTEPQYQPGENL
Glycogen synthase kinase-3 beta (Homo sapiens), sequence (P49841 whole entry, looked up): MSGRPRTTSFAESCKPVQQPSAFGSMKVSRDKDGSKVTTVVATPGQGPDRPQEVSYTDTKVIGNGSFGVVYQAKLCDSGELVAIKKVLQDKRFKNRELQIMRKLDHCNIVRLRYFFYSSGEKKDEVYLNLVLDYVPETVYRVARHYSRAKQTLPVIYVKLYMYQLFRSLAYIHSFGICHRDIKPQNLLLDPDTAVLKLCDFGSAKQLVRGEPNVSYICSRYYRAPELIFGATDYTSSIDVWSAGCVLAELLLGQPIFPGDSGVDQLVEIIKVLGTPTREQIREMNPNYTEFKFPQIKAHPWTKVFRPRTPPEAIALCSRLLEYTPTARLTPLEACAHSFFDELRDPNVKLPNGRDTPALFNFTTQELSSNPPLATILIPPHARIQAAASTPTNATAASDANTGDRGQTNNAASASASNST

For `O=c1[nH]c2ncc(-c3ccc(-c4nc[nH]n4)cc3)nc2n1CC1CCOCC1`, the Activity [1] was 83%, the Activity [2] was 70% and the Activity [3] was 96%. It also gave an Activity [4] of 92%, an Activity [5] of 97% and an Activity [6] of 93%. For the same compound, the Activity [7] was 70%, the Activity [8] was 88% and the Activity [9] was 93%. The Activity [10] was 84%, the Activity [11] was 96% and the Activity [12] was 97%. The Activity [13] was 94%, the pIC50 [14] was 6.56 and the pIC50 [15] was 6.82.

`O=c1[nH]c2ncc(-c3ccc4[nH]cnc4c3)nc2n1CC1CCCCC1` gave an Activity [1] of 23%, an Activity [2] of 84% and an Activity [3] of 90%. For the same compound, the Activity [4] was 63%, the Activity [5] was 96% and the Activity [6] was 63%. For the same compound, the Activity [7] was 10%, the Activity [8] was 62% and the Activity [9] was 101%. It also gave an Activity [10] of 80%, an Activity [11] of 96% and an Activity [12] of 53%. For the same compound, the Activity [13] was 77%, the pIC50 [14] was 6.37 and the pIC50 [15] was 6.86.

`CC(C)(O)c1ccc(-c2cnc3[nH]c(=O)n(CC4CCCCC4)c3n2)cc1` showed an Activity [1] of 53%, an Activity [2] of 87% and an Activity [3] of 86%. It also gave an Activity [4] of 73%, an Activity [5] of 90% and an Activity [6] of 94%. The Activity [7] was 31%, the Activity [8] was 83% and the Activity [9] was 91%. For the same compound, the Activity [10] was 77%, the Activity [11] was 97% and the Activity [12] was 96%. The Activity [13] was 91%, the pIC50 [14] was 5.87 and the pIC50 [15] was 6.49.
